Changes are numbered by the printed parent chain. Activity calls are given as the source filed them. The rule behind the calls is not given here.
Columns and labels:
[1] = tested on: T1, General amino-acid permease GAP1 (Saccharomyces cerevisiae), P19145 [C397C]; experiment: Induction of yeast Gap1 C397C mutant-mediated amino acid uptake at 2 mM in presence of 10 mM MTSEA treated before compound addition
T1 sequence (whole entry): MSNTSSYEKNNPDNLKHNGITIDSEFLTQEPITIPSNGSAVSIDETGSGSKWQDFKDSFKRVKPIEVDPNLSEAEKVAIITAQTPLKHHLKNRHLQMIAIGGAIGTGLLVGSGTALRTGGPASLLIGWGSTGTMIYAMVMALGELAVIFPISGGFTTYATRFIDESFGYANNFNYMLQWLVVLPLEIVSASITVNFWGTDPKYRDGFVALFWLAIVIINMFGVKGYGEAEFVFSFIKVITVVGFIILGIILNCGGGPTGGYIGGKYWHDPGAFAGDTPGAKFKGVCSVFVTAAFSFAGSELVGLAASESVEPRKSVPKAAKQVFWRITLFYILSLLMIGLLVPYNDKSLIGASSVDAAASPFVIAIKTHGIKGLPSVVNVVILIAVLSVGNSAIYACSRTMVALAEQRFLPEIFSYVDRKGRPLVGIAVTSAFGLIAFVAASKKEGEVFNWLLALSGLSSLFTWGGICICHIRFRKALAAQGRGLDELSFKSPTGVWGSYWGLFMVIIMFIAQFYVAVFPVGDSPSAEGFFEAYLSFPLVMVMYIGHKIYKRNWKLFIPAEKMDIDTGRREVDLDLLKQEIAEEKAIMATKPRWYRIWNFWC

[2] = tested on: T2, General amino-acid permease GAP1 (Saccharomyces cerevisiae), P19145 [N391C]; experiment: Induction of yeast Gap1 N391C mutant-mediated trehalose activation at 2 mM in presence of 10 mM MTSEA treated before compound addition
T2 sequence (whole entry): T1 sequence (whole entry) with N391C

[3] = tested on: General amino-acid permease GAP1 (Saccharomyces cerevisiae), P19145 [S388C]; experiment: Induction of yeast Gap1 S388C mutant-mediated trehalose activation at 2 mM in presence of 10 mM MTSEA treated before compound addition
Chain of General amino-acid permease GAP1 (Saccharomyces cerevisiae), P19145 [S388C] (P19145 whole entry S388C): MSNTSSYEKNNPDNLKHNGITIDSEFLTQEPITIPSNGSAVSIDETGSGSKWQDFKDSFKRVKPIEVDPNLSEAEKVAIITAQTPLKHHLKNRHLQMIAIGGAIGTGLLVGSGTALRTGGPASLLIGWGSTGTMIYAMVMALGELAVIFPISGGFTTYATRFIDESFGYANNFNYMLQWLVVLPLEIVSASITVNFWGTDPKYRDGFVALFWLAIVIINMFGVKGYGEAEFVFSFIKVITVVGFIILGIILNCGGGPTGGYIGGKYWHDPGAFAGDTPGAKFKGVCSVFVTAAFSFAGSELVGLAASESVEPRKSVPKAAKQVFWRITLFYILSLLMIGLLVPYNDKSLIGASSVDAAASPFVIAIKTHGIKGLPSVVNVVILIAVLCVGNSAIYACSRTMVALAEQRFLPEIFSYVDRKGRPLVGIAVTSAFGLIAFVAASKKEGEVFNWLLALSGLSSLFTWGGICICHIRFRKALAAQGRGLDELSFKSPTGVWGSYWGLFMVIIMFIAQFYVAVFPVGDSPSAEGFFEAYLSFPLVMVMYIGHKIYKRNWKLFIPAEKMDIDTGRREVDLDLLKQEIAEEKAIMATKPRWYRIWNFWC

[4] = tested on: General amino-acid permease GAP1 (Saccharomyces cerevisiae), P19145 [V402C]; experiment: Inhibition of yeast Gap1 V402C mutant-mediated trehalose activation at 10 mM
Chain of General amino-acid permease GAP1 (Saccharomyces cerevisiae), P19145 [V402C] (P19145 whole entry V402C): as the sequence (P19145 whole entry S388C) above, with C388S, V402C counted along it

[5] = tested on: T3, General amino-acid permease GAP1 (Saccharomyces cerevisiae), P19145 [L383C]; experiment: Induction of yeast Gap1 L383C mutant-mediated amino acid uptake at 2 mM in presence of 10 mM MTSEA treated before compound addition
T3 sequence (whole entry): T1 sequence (whole entry) with L383C

[6] = target: T4, General amino-acid permease GAP1 (Saccharomyces cerevisiae) (UniProt P19145); experiment: Induction of nitrogen-starved wild type sigma1278b yeast Gap1-mediated trehalase activation at 2 mM in presence of 10 mM MTSEA treated before compound addition
T4 sequence (whole entry): T1 sequence (whole entry)

[7] = tested on: General amino-acid permease GAP1 (Saccharomyces cerevisiae), P19145 [Y395C]; experiment: Inhibition of yeast Gap1 Y395C mutant-mediated trehalose activation at 10 mM
Chain of General amino-acid permease GAP1 (Saccharomyces cerevisiae), P19145 [Y395C] (P19145 whole entry Y395C): as the sequence (P19145 whole entry S388C) above, with C388S, Y395C counted along it

[8] = tested on: T5, General amino-acid permease GAP1 (Saccharomyces cerevisiae), P19145 [L387C]; experiment: Induction of yeast Gap1 L387C mutant-mediated trehalose activation at 2 mM in presence of 10 mM MTSEA treated before compound addition
T5 sequence (whole entry): T1 sequence (whole entry) with L387C

Activity [1]: Active
inhibition [2]: Active
inhibition [3]: inactive
inhibition [4]: Active
Activity [5]: Active
inhibition [6]: Active
inhibition [7]: Active
inhibition [8]: Active
SMILES: NC(=O)NCCC[C@H](N)C(=O)O
